The values below come from ChEMBL document CHEMBL4265951, “Multi-target-directed ligands for Alzheimer's disease: Discovery of chromone-based monoamine oxidase/cholinesterase inhibitors” (Eur J Med Chem, 2018).

Activity calls are given as the source filed them. The calls are words filed in the database; no cut-off is given here.

The target of data set [1] is T1, Amine oxidase [flavin-containing] B (Homo sapiens, UniProt P27338).
T1 sequence (P27338 whole entry): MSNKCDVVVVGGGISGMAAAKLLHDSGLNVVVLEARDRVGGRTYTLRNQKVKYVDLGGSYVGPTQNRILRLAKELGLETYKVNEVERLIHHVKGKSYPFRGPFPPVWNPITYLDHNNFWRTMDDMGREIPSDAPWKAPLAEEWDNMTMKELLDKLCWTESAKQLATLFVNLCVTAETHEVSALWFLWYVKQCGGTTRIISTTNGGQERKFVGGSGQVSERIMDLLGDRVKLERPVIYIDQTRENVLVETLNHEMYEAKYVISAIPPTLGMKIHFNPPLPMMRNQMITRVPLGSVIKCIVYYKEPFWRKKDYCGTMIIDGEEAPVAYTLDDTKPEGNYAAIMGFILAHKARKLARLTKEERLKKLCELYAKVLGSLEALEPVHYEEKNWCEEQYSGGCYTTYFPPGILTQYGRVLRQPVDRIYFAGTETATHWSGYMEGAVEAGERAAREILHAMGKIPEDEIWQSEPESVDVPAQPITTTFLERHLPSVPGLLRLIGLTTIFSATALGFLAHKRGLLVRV
The experiment in a line: biochemical. The format is cell-based.
Description: Inhibition of human recombinant MAOB expressed in baculovirus infected BTI-TN-5B1- 4 cells using p-tyramine as substrate assessed as decrease in H2O2 production by amplex red-based fluorescence assay

Data set [2] addresses T2, Acetylcholinesterase (Homo sapiens, UniProt P22303). Kind of data set: Inhibition of human AChE using acetylthiocholine iodide as substrate pretreated for 5 mins followed by substrate addition measured after 5 mins by Ellman's method. For orientation: DTNB colorimetry detects thiols as they appear.
Data set [3] addresses T3, Cholinesterase (Homo sapiens, UniProt P06276). The experiment in a line: Inhibition of human serum BuChE using butyrylthiocholine as substrate pretreated for 5 mins followed by substrate addition measured after 5 mins by Ellman's method.
In a further data set the target is Beta-secretase 1 (Homo sapiens, UniProt P56817). Kind of data set: Inhibition of human BACE1 using rhodamine-EVNLDAEFK-quencher as substrate after 60 mins by FRET assay.
The target of data set [4] is T4, Amine oxidase [flavin-containing] A (Homo sapiens, UniProt P21397).
T4 sequence (P21397 whole entry): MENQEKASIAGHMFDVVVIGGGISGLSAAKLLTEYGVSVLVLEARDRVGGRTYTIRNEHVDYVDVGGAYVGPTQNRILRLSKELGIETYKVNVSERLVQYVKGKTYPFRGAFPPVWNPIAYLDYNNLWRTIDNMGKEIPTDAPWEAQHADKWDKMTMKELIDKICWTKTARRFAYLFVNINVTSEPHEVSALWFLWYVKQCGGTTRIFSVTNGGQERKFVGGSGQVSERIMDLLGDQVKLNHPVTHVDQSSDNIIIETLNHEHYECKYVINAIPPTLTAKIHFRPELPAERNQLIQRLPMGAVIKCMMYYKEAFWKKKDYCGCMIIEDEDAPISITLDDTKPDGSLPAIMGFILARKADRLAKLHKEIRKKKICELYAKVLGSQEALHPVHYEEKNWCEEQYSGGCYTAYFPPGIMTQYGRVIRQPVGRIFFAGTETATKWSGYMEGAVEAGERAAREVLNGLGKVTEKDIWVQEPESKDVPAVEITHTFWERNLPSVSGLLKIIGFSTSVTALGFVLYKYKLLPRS
The experiment in a line: Inhibition of human recombinant microsomal MAOA expressed in baculovirus infected BTI-TN-5B1- 4 cells using p-tyramine as substrate assessed as decrease in H2O2 production at 10 uM by amplex red-based fluorescence assay.

Data set [5] is described as follows: in vitro. The following applies: PAMPA. (PAMPA measures passive passage across an artificial lipid membrane.)
Description: Effective permeability of the compound at 1 mg/ml after 4 hrs by BBB-PAMPA method
For data set [6], the target named is T1, Amine oxidase [flavin-containing] B. The experiment in a line: Inhibition of human recombinant MAOB expressed in baculovirus infected BTI-TN-5B1- 4 cells using p-tyramine as substrate assessed as decrease in H2O2 production at 10 uM by amplex red-based fluorescence assay.
Data set [7] has as its target T2, Acetylcholinesterase. Kind of data set: Inhibition of human AChE at 10 uM using acetylthiocholine iodide as substrate pretreated for 5 mins followed by substrate addition measured after 5 mins by Ellman's method.
In data set [8] the target is T3, Cholinesterase. The experiment in a line: Inhibition of human serum BuChE at 10 uM using butyrylthiocholine as substrate pretreated for 5 mins followed by substrate addition measured after 5 mins by Ellman's method.
Data set [9] relates to HepG2. Kind of data set: Cytotoxicity against human HepG2 cells assessed as reduction in cell viability at 0.1 to 50 uM after 48 hrs by resazurin reduction assay. The conditions noted are these: hepg2, 48 h. It counts as cell-based. (In general: Alamar Blue is a resazurin reagent that responds to reducing activity.)
In data set [10] the test system is SH-SY5Y. The experiment in a line: Cytotoxicity against human SH-SY5Y cells assessed as reduction in cell viability at 0.1 to 50 uM after 48 hrs by resazurin reduction assay. It counts as cell-based.
The test system of data set [11] is SH-SY5Y. Kind of data set: Cytotoxicity against human SH-SY5Y cells assessed as reduction in cell viability at 0.1 to 50 uM after 48 hrs by SRB assay. It counts as cell-based.
The test system of data set [12] is HepG2. Kind of data set: Cytotoxicity against human HepG2 cells assessed as reduction in cell viability at 0.1 to 50 uM after 48 hrs by SRB assay. The conditions noted are these: hepg2, 48 h. The format is cell-based.
For data set [13], the target named is T1, Amine oxidase [flavin-containing] B. Kind of data set: Competitive inhibition of human recombinant microsomal MAOB expressed in baculovirus infected BTI-TN-5B1- 4 cells using p-tyramine as substrate assessed as decrease in H2O2 production at 500 to 1000 nM by Lineweaver-Burk plot analysis.
Data set [14] shares this target. Kind of data set: Reversible competitive inhibition of human recombinant microsomal MAOB expressed in baculovirus infected BTI-TN-5B1- 4 cells using p-tyramine as substrate assessed as decrease in H2O2 production by Dixon plot analysis.
The subject of data set [15] is SH-SY5Y. Kind of data set: Cytotoxicity against human SH-SY5Y cells assessed as reduction in cell viability at 25 to 50 uM after 48 hrs by resazurin reduction assay. The format is cell-based.
Data set [16] deals with T4, Amine oxidase [flavin-containing] A. The experiment in a line: Reversible competitive inhibition of human recombinant microsomal MAOA expressed in baculovirus infected BTI-TN-5B1- 4 cells using p-tyramine as substrate assessed as decrease in H2O2 production by Dixon plot analysis.
For data set [17] the target is unchanged. Kind of data set: Competitive inhibition of human recombinant microsomal MAOA expressed in baculovirus infected BTI-TN-5B1- 4 cells using p-tyramine as substrate assessed as decrease in H2O2 production at 1000 to 2000 nM by Lineweaver-Burk plot analysis.
The nature of data set [18]: Cytotoxicity against human SH-SY5Y cells assessed as cell mass at 50 uM after 48 hrs by SRB assay relative to control. The format is cell-based. The following applies: read-out: Activity.
Data set [19] deals with T4, Amine oxidase [flavin-containing] A. The experiment in a line: Reversible inhibition of human recombinant microsomal MAOA expressed in baculovirus infected BTI-TN-5B1- 4 cells using p-tyramine as substrate assessed as decrease in H2O2 production at IC80 after 60 mins. The conditions noted are these: 1 h.
Data set [20] concerns the target T2, Acetylcholinesterase. The experiment in a line: Mixed type inhibition of human AChE using acetylthiocholine iodide as substrate pretreated for 5 mins followed by substrate addition measured after 5 mins by Dixon plot analysis.
Data set [21] has as its target T2, Acetylcholinesterase. The experiment in a line: Mixed type inhibition of human AChE at 0.05 to 0.20 uM using acetylthiocholine iodide as substrate pretreated for 5 mins followed by substrate addition measured after 5 mins by Lineweaver burk plot analysis.
Data set [22] deals with T4, Amine oxidase [flavin-containing] A. Kind of data set: biochemical.
Description: Inhibition of human recombinant microsomal MAOA expressed in baculovirus infected BTI-TN-5B1- 4 cells using p-tyramine as substrate assessed as decrease in H2O2 production by amplex red-based fluorescence assay
Data set [23] is described as follows: in vitro. The following applies: PAMPA. This is another data set of the same source.
Description: Effective permeability of the compound at 25 ug/ml after 18 hrs by BBB-PAMPA method
Data set [24] addresses T4, Amine oxidase [flavin-containing] A. The experiment in a line: Inhibition of human recombinant microsomal MAOA expressed in baculovirus infected BTI-TN-5B1- 4 cells using p-tyramine as substrate assessed as decrease in H2O2 production at 100 uM by amplex red-based fluorescence assay.

T2 sequence (P22303 whole entry): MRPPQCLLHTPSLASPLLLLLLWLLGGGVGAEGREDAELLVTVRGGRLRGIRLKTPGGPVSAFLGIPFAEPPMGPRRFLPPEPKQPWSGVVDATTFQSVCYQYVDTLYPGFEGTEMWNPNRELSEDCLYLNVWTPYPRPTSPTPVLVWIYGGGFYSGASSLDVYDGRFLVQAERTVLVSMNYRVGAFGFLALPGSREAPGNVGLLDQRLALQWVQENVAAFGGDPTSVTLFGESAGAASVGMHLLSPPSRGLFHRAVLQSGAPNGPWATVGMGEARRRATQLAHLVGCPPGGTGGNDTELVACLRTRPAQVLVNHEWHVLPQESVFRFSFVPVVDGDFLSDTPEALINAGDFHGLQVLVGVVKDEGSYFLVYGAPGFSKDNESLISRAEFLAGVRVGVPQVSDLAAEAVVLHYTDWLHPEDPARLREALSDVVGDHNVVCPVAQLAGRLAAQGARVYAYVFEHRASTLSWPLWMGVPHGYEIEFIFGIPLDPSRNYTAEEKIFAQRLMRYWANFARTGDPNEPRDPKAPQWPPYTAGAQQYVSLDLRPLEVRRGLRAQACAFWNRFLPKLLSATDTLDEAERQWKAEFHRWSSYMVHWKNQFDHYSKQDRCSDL
Chain of Beta-secretase 1 (P56817 whole entry): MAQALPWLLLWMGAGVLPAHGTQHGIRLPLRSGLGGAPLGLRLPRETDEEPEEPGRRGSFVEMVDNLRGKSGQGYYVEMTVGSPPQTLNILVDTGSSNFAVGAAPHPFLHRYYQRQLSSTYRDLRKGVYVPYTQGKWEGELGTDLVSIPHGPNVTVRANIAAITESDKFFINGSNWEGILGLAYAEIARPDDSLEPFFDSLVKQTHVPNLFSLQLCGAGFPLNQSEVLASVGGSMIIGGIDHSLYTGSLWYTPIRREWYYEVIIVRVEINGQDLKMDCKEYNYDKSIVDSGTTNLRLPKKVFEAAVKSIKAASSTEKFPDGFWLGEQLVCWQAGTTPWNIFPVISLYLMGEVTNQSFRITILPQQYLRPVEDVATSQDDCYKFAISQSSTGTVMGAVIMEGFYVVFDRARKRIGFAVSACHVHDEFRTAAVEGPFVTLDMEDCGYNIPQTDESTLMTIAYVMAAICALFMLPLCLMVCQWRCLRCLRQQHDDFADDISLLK
T3 sequence (P06276 whole entry): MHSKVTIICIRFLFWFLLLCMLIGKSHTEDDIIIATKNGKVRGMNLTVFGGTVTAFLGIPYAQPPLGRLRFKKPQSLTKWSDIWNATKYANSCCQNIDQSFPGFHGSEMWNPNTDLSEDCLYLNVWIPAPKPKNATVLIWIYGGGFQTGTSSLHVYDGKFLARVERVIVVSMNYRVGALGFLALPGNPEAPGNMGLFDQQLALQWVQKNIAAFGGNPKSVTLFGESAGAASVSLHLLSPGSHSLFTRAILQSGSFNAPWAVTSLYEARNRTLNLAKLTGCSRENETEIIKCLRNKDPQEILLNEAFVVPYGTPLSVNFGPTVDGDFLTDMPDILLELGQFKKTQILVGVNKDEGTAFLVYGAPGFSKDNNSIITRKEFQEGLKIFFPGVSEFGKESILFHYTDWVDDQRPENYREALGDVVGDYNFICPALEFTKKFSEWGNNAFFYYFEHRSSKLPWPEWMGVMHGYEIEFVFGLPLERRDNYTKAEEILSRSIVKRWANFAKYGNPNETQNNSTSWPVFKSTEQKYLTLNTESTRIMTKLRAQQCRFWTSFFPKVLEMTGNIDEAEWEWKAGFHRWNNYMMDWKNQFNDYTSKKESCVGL

One may read the IC50 as the concentration that gives 50% inhibition. The Papp is the rate of passage across a membrane or cell layer, normalised by area and donor concentration. As to `CN(C)CCOC(=O)/C=C/c1ccc2oc(C(=O)Nc3ccccc3)cc(=O)c2c1`, the IC50 is 2280 nM in data set [1], 740 nM at Acetylcholinesterase [2], 1570 nM at Cholinesterase [3] and more than 10000 nM against Beta-secretase 1. Moreover, in data set [4], the “inhibition (INH)” value was “Not Active”. In the data set “in vitro [5]”, this molecule registered a Papp at 4 h, 1 mg/ml of 3.6 ×10⁻⁶ cm/s.

Take `Cc1ccc(NC(=O)c2coc3ccc(/C=C/C(=O)O)cc3c2=O)cc1`: the “inhibition (INH)” value in [4] and in data set [6] was “Not Active” each time. Besides, the inhibition entry on Acetylcholinesterase [7] and at Cholinesterase [8] was “inactive” throughout. The molecule also displayed a Papp at 4 h, 1 mg/ml in the data set “in vitro [5]” of 1.6 ×10⁻⁶ cm/s.

Turning to `O=C(O)/C=C/c1ccc2occ(C(=O)Nc3ccccc3)c(=O)c2c1`, the Activity result in the data set with HepG2 [9], in the data set with SH-SY5Y [10], with SH-SY5Y [11] and in the data set on HepG2 [12] was “Non-Toxic” each time. In addition, the IC50 in [1] is 4660 nM; on Acetylcholinesterase [2], 9250 nM; on Beta-secretase 1, more than 10000 nM. Besides, in [4], the “inhibition (INH)” value is listed as “Not Active”. Moreover, the inhibition entry at Cholinesterase [8] was “inactive”. Besides, the Papp at 4 h, 1 mg/ml in “in vitro [5]” stood at 1.2 ×10⁻⁶ cm/s.

For orientation: Ki means a dissociation constant, usually derived from enzyme kinetics or from competition with a known ligand. As for `CN(C)CCOC(=O)/C=C/c1ccc2occ(C(=O)Nc3ccccc3)c(=O)c2c1`, the Activity entry in the data set with HepG2 [9], in the data set on SH-SY5Y [10], in the data set with SH-SY5Y [11] and in the data set with HepG2 [12] was “Non-Toxic” throughout. Also, the “inhibition (INH)” value is “Active” in [13] and “Not Active” in [4]. Moreover, the IC50 in [1] was 630 nM; at Acetylcholinesterase [2] it was 3690 nM; at Cholinesterase [3], 4320 nM; on Beta-secretase 1, more than 10000 nM. Besides, the Ki in [14] was 337 nM. The Papp at 4 h, 1 mg/ml in the data set “in vitro [5]” is 6.4 ×10⁻⁶ cm/s.

For the molecule `Cc1ccc(NC(=O)c2cc(=O)c3cc(/C=C/C(=O)OCCN(C)C)ccc3o2)cc1`, in the data set on SH-SY5Y [15], the Activity entry is reported as “Toxic”. The values for the Ki (in data set [16]; in [14]; at Acetylcholinesterase [20]) were 57 nM, 478 nM and 190 nM, respectively. For the same molecule, the “inhibition (INH)” value in data set [13], in data set [17] and in [19] was “Active” throughout. For the same molecule, the IC50 in data set [1] was 3810 nM; on Acetylcholinesterase [2], 210 nM; against Beta-secretase 1 it was more than 10000 nM; in [22], 940 nM. Besides, in data set [18], the viability at 48 h, 50 µM amounted to 44%. In addition, the inhibition result at Cholinesterase [8] is “inactive”. At Acetylcholinesterase [21], the inhibition entry is “Active”. In the data set “in vitro [5]”, the Papp at 4 h, 1 mg/ml is 5.2 ×10⁻⁶ cm/s.

In the data set “in vitro [5]”, `C[C@]12CCC(=O)C=C1CC[C@@H]1[C@@H]2[C@@H](O)C[C@]2(C=O)[C@@H](C(=O)CO)CC[C@@H]12` [ALDOSTERONE] showed a Papp at 4 h, 1 mg/ml of 1 ×10⁻⁶ cm/s. Also, the Papp at 18 h, 25 ug/ml in the data set “in vitro [23]” amounted to 1.2 ×10⁻⁶ cm/s.

Turning to `C[C@H](NCc1ccc(OCc2cccc(F)c2)cc1)C(N)=O` [SAFINAMIDE], in data set [24], the “inhibition (INH)” value is given as “Not Active”.

In the case of `Cc1ccc(NC(=O)c2coc3ccc(/C=C/C(=O)OCCN(C)C)cc3c2=O)cc1`, the IC50 in [1] is 2370 nM; at Acetylcholinesterase [2] it was 970 nM; at Cholinesterase [3], 7420 nM; on Beta-secretase 1, more than 10000 nM. The “inhibition (INH)” value in data set [4] is on record as “Not Active”. Moreover, in the data set “in vitro [5]”, the Papp at 4 h, 1 mg/ml stood at 9.7 ×10⁻⁶ cm/s.

Take `COc1ccc(NC(=O)c2cc(=O)c3cc(/C=C/C(=O)OCCN(C)C)ccc3o2)cc1`: the IC50 at Acetylcholinesterase [2] came out at 910 nM; in [22], 4910 nM. For the same molecule, the “inhibition (INH)” value in data set [6] was “Not Active”. Besides, the inhibition entry on Cholinesterase [8] is “inactive”.
